Measured values taken from PMC9195458, “Identification of antimalarial targets of chloroquine by a combined deconvolution strategy of ABPP and MS-CETSA” (Military Medical Research, 2022).

How the values were obtained:
[1] = target: T1, PfPGK (Plasmodium falciparum, UniProt P27362); assay: photo-affinity labelling, click TAMRA, in-gel fluorescence; type: binding; settings: covalent photo-crosslink on UV 365 nm; recombinant protein; competed by excess CQ
T1 construct: gene PGK
T1 sequence (P27362 1-416): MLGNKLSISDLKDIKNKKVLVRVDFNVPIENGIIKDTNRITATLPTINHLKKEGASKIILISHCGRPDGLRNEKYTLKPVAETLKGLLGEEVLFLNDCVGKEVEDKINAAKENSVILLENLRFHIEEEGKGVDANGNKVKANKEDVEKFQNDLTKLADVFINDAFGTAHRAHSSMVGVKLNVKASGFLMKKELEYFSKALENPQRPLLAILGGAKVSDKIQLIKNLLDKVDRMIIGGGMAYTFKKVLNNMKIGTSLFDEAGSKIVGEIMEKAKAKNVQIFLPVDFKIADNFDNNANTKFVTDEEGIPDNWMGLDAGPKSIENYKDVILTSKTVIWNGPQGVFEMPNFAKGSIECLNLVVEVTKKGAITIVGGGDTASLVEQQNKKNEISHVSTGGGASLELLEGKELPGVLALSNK

[2] = target: T2, PfPyrK (Plasmodium falciparum, UniProt C6KTA4); assay: as above; type: binding; settings: covalent photo-crosslink on UV 365 nm; recombinant protein; competed by excess CQ
T2 construct: gene PF3D7_0626800
T2 sequence (C6KTA4 1-511): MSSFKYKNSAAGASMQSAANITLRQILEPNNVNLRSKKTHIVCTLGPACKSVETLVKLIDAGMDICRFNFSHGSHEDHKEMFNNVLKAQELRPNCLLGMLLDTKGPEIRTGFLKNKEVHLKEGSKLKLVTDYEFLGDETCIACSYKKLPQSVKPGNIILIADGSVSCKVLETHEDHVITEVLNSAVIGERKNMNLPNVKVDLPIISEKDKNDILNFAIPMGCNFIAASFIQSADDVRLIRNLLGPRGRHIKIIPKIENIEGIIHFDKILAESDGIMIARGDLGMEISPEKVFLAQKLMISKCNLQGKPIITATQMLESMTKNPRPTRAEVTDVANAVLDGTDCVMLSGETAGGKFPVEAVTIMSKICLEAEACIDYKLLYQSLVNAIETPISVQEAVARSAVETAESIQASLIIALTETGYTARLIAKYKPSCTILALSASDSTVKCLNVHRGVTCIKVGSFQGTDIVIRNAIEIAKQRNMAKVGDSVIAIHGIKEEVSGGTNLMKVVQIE

[3] = target: T3, PfLDH (Plasmodium falciparum, UniProt Q76NM3); assay: as above; type: binding; settings: covalent photo-crosslink on UV 365 nm; recombinant protein; competed by excess CQ
T3 construct: gene PF3D7_1324900

[4] = target: T4, PfOAT (Plasmodium falciparum, UniProt Q6LFH8); assay: as above; type: binding; settings: covalent photo-crosslink on UV 365 nm; recombinant protein; competed by excess CQ
T4 construct: gene OAT
T4 sequence (Q6LFH8 1-414): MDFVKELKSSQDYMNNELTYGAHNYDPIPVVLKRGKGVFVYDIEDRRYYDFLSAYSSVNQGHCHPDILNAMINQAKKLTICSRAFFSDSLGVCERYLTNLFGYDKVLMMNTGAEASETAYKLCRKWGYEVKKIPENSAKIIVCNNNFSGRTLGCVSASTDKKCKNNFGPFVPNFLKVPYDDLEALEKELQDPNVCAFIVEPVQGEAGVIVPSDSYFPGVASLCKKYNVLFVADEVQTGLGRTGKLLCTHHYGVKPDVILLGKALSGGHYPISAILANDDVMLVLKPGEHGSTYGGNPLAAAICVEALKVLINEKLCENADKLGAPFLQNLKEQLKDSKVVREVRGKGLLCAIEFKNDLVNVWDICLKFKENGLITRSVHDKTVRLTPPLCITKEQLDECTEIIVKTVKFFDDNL

[5] = target: T5, PfTPI (Plasmodium falciparum, UniProt Q7KQM0); assay: as above; type: binding; settings: covalent photo-crosslink on UV 365 nm; recombinant protein; competed by excess CQ
T5 construct: gene TPI

[6] = target: T6, plasmepsin II (Plasmodium falciparum, UniProt Q8I6V3); assay: ITDR MS-CETSA thermal shift; type: biochemical; settings: parasite lysate, CQ 0-300 µmol/L; heated at 37, 52 or 61 °C
T6 construct: gene PMII; native protein in soluble parasite lysate

[7] = target: T7, falcilysin (Plasmodium falciparum, UniProt Q76NL8); assay: ITDR MS-CETSA thermal shift; type: biochemical; settings: parasite lysate, CQ 0-300 µmol/L; heated at 37, 52 or 61 °C
T7 construct: gene FLN; native protein in soluble parasite lysate
T7 sequence (Q76NL8 1-1193): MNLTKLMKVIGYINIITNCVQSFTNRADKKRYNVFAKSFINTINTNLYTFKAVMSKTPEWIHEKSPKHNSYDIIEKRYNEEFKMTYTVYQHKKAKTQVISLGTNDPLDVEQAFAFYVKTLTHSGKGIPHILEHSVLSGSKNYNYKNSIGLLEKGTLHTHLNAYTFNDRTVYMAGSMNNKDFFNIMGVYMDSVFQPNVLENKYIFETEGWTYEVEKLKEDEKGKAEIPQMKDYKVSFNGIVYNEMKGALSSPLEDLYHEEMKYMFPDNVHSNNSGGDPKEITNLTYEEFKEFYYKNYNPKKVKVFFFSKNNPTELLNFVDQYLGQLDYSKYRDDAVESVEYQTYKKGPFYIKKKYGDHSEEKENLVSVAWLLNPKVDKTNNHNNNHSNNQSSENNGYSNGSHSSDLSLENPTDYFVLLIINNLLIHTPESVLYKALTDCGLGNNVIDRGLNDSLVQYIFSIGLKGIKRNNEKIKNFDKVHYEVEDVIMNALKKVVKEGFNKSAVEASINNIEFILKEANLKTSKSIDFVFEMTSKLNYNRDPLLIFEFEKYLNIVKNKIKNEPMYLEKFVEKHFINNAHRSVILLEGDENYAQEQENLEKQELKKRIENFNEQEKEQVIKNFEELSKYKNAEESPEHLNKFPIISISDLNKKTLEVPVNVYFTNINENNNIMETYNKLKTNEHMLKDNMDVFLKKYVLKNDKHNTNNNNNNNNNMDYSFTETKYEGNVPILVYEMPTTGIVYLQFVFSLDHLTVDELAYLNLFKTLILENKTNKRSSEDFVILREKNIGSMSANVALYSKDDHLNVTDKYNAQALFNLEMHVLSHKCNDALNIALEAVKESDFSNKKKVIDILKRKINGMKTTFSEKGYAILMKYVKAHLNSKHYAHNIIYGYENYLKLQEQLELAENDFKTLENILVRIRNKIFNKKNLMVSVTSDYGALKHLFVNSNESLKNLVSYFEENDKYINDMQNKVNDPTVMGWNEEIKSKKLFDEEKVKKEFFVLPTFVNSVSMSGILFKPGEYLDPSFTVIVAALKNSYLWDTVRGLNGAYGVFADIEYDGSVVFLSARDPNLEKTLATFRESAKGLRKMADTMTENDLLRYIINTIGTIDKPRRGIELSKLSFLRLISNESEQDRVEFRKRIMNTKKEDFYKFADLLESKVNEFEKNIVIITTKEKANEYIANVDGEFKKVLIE

[8] = target: T4, PfOAT; assay: SPR (BIAcore); type: binding; settings: read-out: KCQ-PfOAT
[9] = target: T5, PfTPI; assay: SPR (BIAcore); type: binding; settings: read-out: KCQ-PfTPI
[10] = target: T1, PfPGK; assay: enzyme activity inhibition, dose-response; type: biochemical; settings: recombinant protein
[11] = target: T2, PfPyrK; assay: SPR (BIAcore); type: binding; settings: read-out: KCQ-PfPyrK
[12] = target: T2, PfPyrK; assay: enzyme activity inhibition, dose-response; type: biochemical; settings: recombinant protein
[13] = target: T5, PfTPI; assay: enzyme activity inhibition, dose-response; type: biochemical; settings: recombinant protein
[14] = target: T1, PfPGK; assay: SPR (BIAcore); type: binding; settings: read-out: KCQ-PfPGK
[15] = target: T3, PfLDH; assay: SPR (BIAcore); type: binding; settings: read-out: KCQ-PfLDH
[16] = target: T3, PfLDH; assay: enzyme activity inhibition, dose-response; type: biochemical; settings: recombinant protein
[17] = target: T8, plasmepsin IV (Plasmodium falciparum, UniProt Q8IM16); assay: ITDR MS-CETSA thermal shift; type: biochemical; settings: parasite lysate, CQ 0-300 µmol/L; heated at 37, 52 or 61 °C
T8 construct: gene PMIV; native protein in soluble parasite lysate

[18] = target: T4, PfOAT; assay: enzyme activity inhibition, dose-response; type: biochemical; settings: recombinant protein

T5 sequence (Q7KQM0 whole entry): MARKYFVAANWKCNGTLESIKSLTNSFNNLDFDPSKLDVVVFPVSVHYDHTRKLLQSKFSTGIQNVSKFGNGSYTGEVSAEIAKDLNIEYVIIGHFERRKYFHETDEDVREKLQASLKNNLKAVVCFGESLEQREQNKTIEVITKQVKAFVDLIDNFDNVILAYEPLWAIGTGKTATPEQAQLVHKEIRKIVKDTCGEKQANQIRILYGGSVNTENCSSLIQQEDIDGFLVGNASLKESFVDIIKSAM
T3 sequence (Q76NM3 1-316): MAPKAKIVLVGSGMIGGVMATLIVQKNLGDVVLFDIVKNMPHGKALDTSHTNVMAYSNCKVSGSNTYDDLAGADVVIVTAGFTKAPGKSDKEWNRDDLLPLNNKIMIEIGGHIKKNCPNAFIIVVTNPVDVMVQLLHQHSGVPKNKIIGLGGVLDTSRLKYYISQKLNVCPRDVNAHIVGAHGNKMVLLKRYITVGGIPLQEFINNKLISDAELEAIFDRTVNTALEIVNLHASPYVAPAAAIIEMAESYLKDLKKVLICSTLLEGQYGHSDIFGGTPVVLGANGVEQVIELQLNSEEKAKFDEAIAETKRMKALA
T6 sequence (Q8I6V3 125-453): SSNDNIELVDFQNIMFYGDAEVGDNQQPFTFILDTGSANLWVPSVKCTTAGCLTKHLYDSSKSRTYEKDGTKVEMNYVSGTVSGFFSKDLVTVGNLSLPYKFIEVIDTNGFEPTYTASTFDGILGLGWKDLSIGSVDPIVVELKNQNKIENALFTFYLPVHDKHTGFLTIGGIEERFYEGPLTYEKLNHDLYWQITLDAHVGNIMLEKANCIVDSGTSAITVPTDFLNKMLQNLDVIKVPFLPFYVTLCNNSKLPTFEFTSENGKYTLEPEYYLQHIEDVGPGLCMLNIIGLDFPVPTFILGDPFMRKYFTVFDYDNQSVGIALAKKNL
T8 sequence (Q8IM16 122-449): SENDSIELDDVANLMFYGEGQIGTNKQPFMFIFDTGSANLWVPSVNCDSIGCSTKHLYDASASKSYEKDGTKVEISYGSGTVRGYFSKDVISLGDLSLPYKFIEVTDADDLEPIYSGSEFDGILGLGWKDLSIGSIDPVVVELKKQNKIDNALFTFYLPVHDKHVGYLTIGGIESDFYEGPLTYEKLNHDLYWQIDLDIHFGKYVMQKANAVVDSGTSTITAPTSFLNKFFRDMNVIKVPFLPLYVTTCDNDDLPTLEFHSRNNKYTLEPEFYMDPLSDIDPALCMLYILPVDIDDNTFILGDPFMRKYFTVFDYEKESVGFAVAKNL

Row | Structure (SMILES) | photo-affinity labelling, click TAMRA, in-gel fluorescence [1] | photo-affinity labelling, click TAMRA, in-gel fluorescence [2] | photo-affinity labelling, click TAMRA, in-gel fluorescence [3] | photo-affinity labelling, click TAMRA, in-gel fluorescence [4] | photo-affinity labelling, click TAMRA, in-gel fluorescence [5] | thermal shift [6] | thermal shift [7] | Kd [8] [nM] | Kd [9] [nM] | inhibition of enzymatic activity [10] | Kd [11] [nM] | inhibition of enzymatic activity [12] | inhibition of enzymatic activity [13] | Kd [14] [nM] | Kd [15] [nM] | inhibition of enzymatic activity [16] | thermal shift [17] | inhibition of enzymatic activity [18]
1 | C#CCOCCC1(CCOCc2cn(CCCCC(=O)N(CC)CCCC(C)Nc3ccnc4cc(Cl)ccc34)nn2)N=N1 (stereo not drawn) [CQP] | CQP specifically binds to recombinant PfLDH, PfOAT, PfPyrK, PfPGK, and PfTPI proteins | CQP specifically binds to recombinant PfLDH, PfOAT, PfPyrK, PfPGK, and PfTPI proteins | CQP specifically binds to recombinant PfLDH, PfOAT, PfPyrK, PfPGK, and PfTPI proteins | CQP specifically binds to recombinant PfLDH, PfOAT, PfPyrK, PfPGK, and PfTPI proteins | CQP specifically binds to recombinant PfLDH, PfOAT, PfPyrK, PfPGK, and PfTPI proteins |  |  |  |  |  |  |  |  |  |  |  |  | 
2 | CCN(CC)CCCC(C)Nc1ccnc2cc(Cl)ccc12 (stereo not drawn) [CQ] |  |  |  |  |  | plasmepsin II and plasmepsin IV also showed significant thermal shift | falcilysin as well as other hemoglobin proteolytic enzymes | 1910 | 1180 | PfPGK (d) and PfTPI (e) proteins in vitro in a dose-dependent manner | 850 | CQ inhibits the enzymatic activities of the recombinant PfLDH (a), PfOAT (b), PfPyrK (c) | PfPGK (d) and PfTPI (e) proteins in vitro in a dose-dependent manner | 1950 | 320 | CQ inhibits the enzymatic activities of the recombinant PfLDH (a) | plasmepsin II and plasmepsin IV also showed significant thermal shift | CQ inhibits the enzymatic activities of the recombinant PfLDH (a), PfOAT (b)
